Molecules are shown by their SMILES. Read-outs that look alike come from different tables or passages of the source. Bounds are passed on as bounds.

Series [1] is described as follows: ulcerogenic activity test (GI). The settings on record: in vivo, po. From the text: (The ulcerogenic activity test is hereafter referred to as GI).
Series [2] has as its system adjuvant-induced polyarthritis syndrome. The experiment in a line: adjuvant-induced polyarthritis syndrome in rats (inhibition of paw volume). The settings on record: 504 h, rat, oral, from day before adjuvant, continued for 21 days. Type of series: in vivo, male Charles River-Wistar Lewis rats. On the procedure:
The (6,11-dihydro-11-oxodibenz[b,e]oxepinyl)pentanoic acids and derivatives thereof of the present invention are useful as antiarthritic agents due to their ability to suppress arthritis-type inflammation in mammals. […] M. Perron and F. D. Wood, Arthritis and Rheumatism, 2, 440 (1959).
Groups of 10 male Charles River-Wistar Lewis rats weighing 150 to 175 g were individually housed and maintained on a regular rat chow diet. Water was given ad libitrim. The adjuvant was prepared by suspending 75 mg of Mycobacterium butyricum (Defco Laboratories, Detroit, Mich.) in 10 ml of white paraffin oil with continuous stirring for 2 hrs at room temperature prior to administration. Test compounds are prepared by suspending the drug in water, adding one drop of Tween 80 per 10 ml of suspension, and homogenizing. The adjuvant suspension (0.1 ml) was injected into the footpad of the left hind paw of the rat. Test compound suspensions were administered orally (10 ml/kg) the day before adjuvant suspension injection and the administration was continued for 21 days. One group of ten rats was used for the test drug, standard, adjuvant-injected control and non-injected control. Control animals received vehicle (10 ml/kg). Three doses of test drug and one dose of standard preparation were used. Injected and non-injected paw volumes were determined on the day the adjuvant suspension was given, and on subsequent days thereafter (usually days 5, 10, 18, and " the method of C. A. Winter, et al., Proc. Soc. Exp. Biol. Med., 111, 544 (1962).
The percent inhibition of paw volume (injected and non-injected hind paw) was calculated by the following formula: [formula]
ED50 -values, i.e., the dose at which the drug affects a 50% inhibition of paw volume, were estimated by the method of J. T. Litchfield and F. Wilcoxon, J. Pharm. Exp. Ther., 96, 99 (1948) and statistically evaluated by means of the student "t" test.

The mark [3] stands for this setting: injected hind paw, read-out: ED50 (dose at which the drug affects a 50% inhibition of paw volume), injected paw.
The mark [4] stands for this setting: non-injected hind paw, read-out: ED50 (dose at which the drug affects a 50% inhibition of paw volume), non-injected paw.

As for `CC(C(=O)O)c1ccc2c(c1)C(=O)c1ccccc1CO2` (stereo not drawn) [2-(6,11-Dihydro-11-oxodibenz[b,e]-oxepin-2-yl)propionic acid], in series [1] (read-out: GI ID50 (ulcerogenic activity)), the TD50 worked out at 5.5 mg/kg.
What is called ED50 is the dose that gives a 50% effect, or the effect in half of the subjects. As for `CC(CCC(=O)O)c1ccc2c(c1)C(=O)c1ccccc1CO2` (stereo not drawn) [4-(6,11-Dihydro-11-oxodibenz[b,e]oxepin-2-yl)pentanoic acid], the values for the ED50 in series [2] (setting [3]) and in series [2] (setting [4]) were 6.4 mg/kg and 3.4 mg/kg, respectively. For the same molecule, the TD50 in series [1] is above 100 mg/kg.
For `CCCCC1C(=O)N(c2ccccc2)N(c2ccccc2)C1=O` [Phenylbutazone], the ED50 in series [2] (setting [3]) stood at 12 mg/kg; in series [2] (setting [4]), 6.8 mg/kg.
